Experimental data published in ChEMBL document CHEMBL3813638, “Investigation of the apoptotic pathway induced by benzimidazole-oxindole conjugates against human breast cancer cells MCF-7” (Bioorg Med Chem Lett, 2016).
The source made the active and inactive calls. The calls are words filed in the database; no cut-off is given here.

Tests used:
MCF7 [1] = test: Disruption of mitochondrial membrane potential in human MCF7 cells assessed as cells with vital and intact mitochondrial membrane at 1 uM after 48 hrs by JC-1 staining based flow cytometry (reference value: 94%); assay type: functional
MCF7 [2] = test: Induction of apoptosis in human MCF7 cells assessed as late apoptotic cells at 1 uM after 24 hrs by Annexin V-FITC/PI dual staining based flow cytometry (reference value: 1.5%); assay type: functional
MCF7 [3] = test: Cytotoxicity against human MCF7 cells; assay type: functional, cell-based
MCF7 [4] = test: Induction of apoptosis in human MCF7 cells assessed as early apoptotic cells at 2 uM after 24 hrs by Annexin V-FITC/PI dual staining based flow cytometry (reference value: 3.5%); assay type: functional
MCF7 [5] = test: Induction of apoptosis in human MCF7 cells assessed as suppression of Bcl-2 expression after 48 hrs by Western blot analysis; assay type: functional, cell-based
HEK293 = test: Cytotoxicity against human HEK293 cells assessed as cell growth inhibition after 48 hrs by MTT assay; assay type: cell-based; conditions: HEK293, 48 h
MCF7 [6] = test: Induction of apoptosis in human MCF7 cells assessed as necrotic cells at 2 uM after 24 hrs by Annexin V-FITC/PI dual staining based flow cytometry (reference value: 0.1%); assay type: functional
MCF7 [7] = test: Induction of apoptosis in human MCF7 cells assessed as increase in Bax expression after 48 hrs by Western blot analysis; assay type: functional, cell-based
MCF7 [8] = test: Disruption of mitochondrial membrane potential in human MCF7 cells assessed as cells with vital and intact mitochondrial membrane at 2 uM after 48 hrs by JC-1 staining based flow cytometry (reference value: 94%); assay type: functional
MCF7 [9] = test: Induction of apoptosis in human MCF7 cells assessed as necrotic cells at 1 uM after 24 hrs by Annexin V-FITC/PI dual staining based flow cytometry (reference value: 0.1%); assay type: functional
MCF7 [10] = test: Induction of apoptosis in human MCF7 cells assessed as increase in cytochrome c levels at 1 to 2 uM after 48 hrs by Western blot analysis; assay type: functional, cell-based
MCF7 [11] = test: Induction of ROS generation in human MCF7 cells at 2 uM after 48 hrs by DCFDA fluorescent probe based flow cytometry (reference value: 5.3%); assay type: functional
MCF7 [12] = test: Induction of apoptosis in human MCF7 cells assessed as viable cells at 2 uM after 24 hrs by Annexin V-FITC/PI dual staining based flow cytometry (reference value: 94.9%); assay type: functional; conditions: MCF7, 24 h, read-out: Activity
Vero = test: Cytotoxicity against African green monkey Vero cells assessed as cell growth inhibition after 48 hrs by MTT assay; assay type: cell-based; conditions: Chlorocebus sabaeus
MCF7 [13] = test: Induction of apoptosis in human MCF7 cells assessed as early apoptotic cells at 1 uM after 24 hrs by Annexin V-FITC/PI dual staining based flow cytometry (reference value: 3.5%); assay type: functional
MCF7 [14] = test: Induction of apoptosis in human MCF7 cells assessed as increase in caspase-9 activation at 1 to 2 uM after 48 hrs by Western blot analysis; assay type: functional, cell-based
MCF7 [15] = test: Induction of apoptosis in human MCF7 cells assessed as increase in PARP 89 KDa cleavage at 1 to 2 uM after 48 hrs by Western blot analysis; assay type: functional, cell-based
MCF7 [16] = test: Induction of apoptosis in human MCF7 cells assessed as late apoptotic cells at 2 uM after 24 hrs by Annexin V-FITC/PI dual staining based flow cytometry (reference value: 1.5%); assay type: functional
MCF7 [17] = test: Induction of ROS generation in human MCF7 cells at 1 uM after 48 hrs by DCFDA fluorescent probe based flow cytometry (reference value: 5.3%); assay type: functional
MCF7 [18] = test: Induction of apoptosis in human MCF7 cells assessed as viable cells at 1 uM after 24 hrs by Annexin V-FITC/PI dual staining based flow cytometry (reference value: 94.9%); assay type: functional; conditions: MCF7, 24 h, read-out: Activity

| Compound | Activity (MCF7 [1]) [%] | Activity (MCF7 [2]) [%] | IC50 (MCF7 [3]) [µM] | Activity (MCF7 [4]) [%] | Activity (MCF7 [5]) | IC50 (HEK293) [µM] | Activity (MCF7 [6]) [%] | Activity (MCF7 [7]) | Activity (MCF7 [8]) [%] | Activity (MCF7 [9]) [%] | Activity (MCF7 [10]) | Activity (MCF7 [11]) [%] | viability at 2 µM (MCF7 [12]) [%] | IC50 (Vero) [µM] | Activity (MCF7 [13]) [%] | Activity (MCF7 [14]) | Activity (MCF7 [15]) | Activity (MCF7 [16]) [%] | Activity (MCF7 [17]) [%] | viability at 1 µM (MCF7 [18]) [%] |
| --- | --- | --- | --- | --- | --- | --- | --- | --- | --- | --- | --- | --- | --- | --- | --- | --- | --- | --- | --- | --- |
| COc1ccc(-c2nc3ccc(/C=C4\C(=O)Nc5ccc(Cl)cc54)cc3[nH]2)cc1 | 80.7 | 31.3 | 1.84 | 35.4 | Dose-dependent effect | 170 | 1.1 | Dose-dependent effect | 57.7 | 1.6 | Active | 33.8 | 27 | 109 | 26.3 | Active | Active | 36.5 | 21.9 | 40.7 |
| O=C1Nc2cc(Cl)ccc2/C1=C/c1ccc2nc(-c3cc(F)cc(F)c3)[nH]c2c1 | 83.1 | 23.4 | 1.97 | 33 | Dose-dependent effect | 147 | 1.2 | Dose-dependent effect | 61.8 | 1.8 | Active | 30 | 31 | 97.9 | 32.5 | Active | Active | 34.9 | 20.3 | 42.3 |
